Tested on: Human neonate-derived fibroblasts
Experiment: Collagen synthesis-promoting activity on human fibroblasts (3H-glycine incorporation)
Assay type: cell-based
Settings: 300 μmol/l
Procedure: 201-271, Kodansha Scientific (1986).
Human neonate-derived fibroblasts (Sanko Junyaku Co., Ltd.) were suspended in DMEM containing 10% fetal bovine serum [Virology, 8, 396 (1959)] and cultured at 37° C. in 5% CO2 to the stationary phase. To the resulting culture were added ^3H-labeled glycine and a test substance, followed by further culturing for 72 hours. After 500 μmol/l phenylmethanesulfonyl fluoride (PMSF) was added to the obtained culture, the cells and the medium were collected, followed by disruption with a sonicator to extract proteins. To the extract were added 100 μmol/l bovine serum albumin (BSA) and 10% trichloroacetic acid (TCA), and the resulting mixture was centrifuged at 3000 rpm for 5 minutes to collect the precipitate. […]
After the reaction mixture was separated by ultrafiltration (molecular weight: 10,000), the radioactivity of the protein fraction in the filtrate (CDP) was measured as the amount of newly synthesized collagen. Then, the radioactivity of the protein fraction which was not filtered (NCDP) was measured, and the collagen synthesis ratio was calculated according to equation 2. The relative collagen synthesis-promoting activity (the change in collagen synthesis) was calculated according to equation 3 as the relative value of the collagen synthesis ratio in the presence of a test substance based on the control. […]

Oc1cc(O)c2c(c1)O[C@H](c1ccc(O)c(O)c1)[C@H](O)[C@H]2c1c(O)cc(O)c2c1O[C@H](c1ccc(O)c(O)c1)[C@H](O)C2 [PB2, procyanidin B-2 [epicatechin-(4β→8)-epicatechin]]
Amount of collagen synthesized compared with control (in words): increased
